One data set deals with MCF7 cells. The data set can be described thus: Inhibitory effect on MCF7 cell proliferation (CellTiter-Glo). The settings on record: Homo sapiens, 144 h, 6 days incubation, luminescence cell viability readout. Format: cell-based. As for the experimental part: MCF7 cells (TCHu74, National Collection of Authenticated Cell Cultures) were cultured in an MEM (GE Healthcare, SH30024.01) complete culture medium containing 10% fetal bovine serum. On day 1 of the experiment, MCF7 cells were seeded into a 96-well plate at a density of 3,000 cells/well using an MEM culture medium containing 2% fetal bovine serum, with each well containing 135 μL of cell suspension. The plate was incubated overnight in a 37° C., 5% CO2 cell incubator. The next day, the test compound, at different concentrations in the culture medium, was added at 15 μL/well. The final concentrations of the compound were 9 concentration points obtained by 4-fold serial dilution from 1000 nM. A blank control containing 0.5% DMSO was set up. The plate was incubated in a 37° C., 5% CO2 cell incubator for 6 days. On day 8, the 96-well cell culture plate was taken out, and CellTiter-Glo® Luminescent Cell Viability Assay (Promega, G7573) was added at 75 µL/well. After the plate was left at room temperature for 10 min, luminescence signal values were measured using a multilabel microplate reader (PerkinElmer, VICTOR 3).
(ATP-based viability assays read luminescence as a measure of living cells.)

In data set [1] the test system is MCF-7 (Y537S) human breast cancer cells xenograft tumors. The data set can be described thus: Efficacy against MCF-7 (Y537S) xenograft tumors in BEIGE SCID mice. The settings on record: for Mean tumor volume D0: D0 (day of grouping, before dosing). Format: in vivo. As for the experimental part: To evaluate the inhibitory effect of compound I on the growth of xenograft tumors of MCF-7 (Y537S) human breast cancer cells in BEIGE SCID mice.
Compound I. A 2% Tween 80+98% PEG-400 solution was used.
Test animals: female BEIGE SCID mice, purchased from Beijing Vital River Laboratory Animal Technology Co., Ltd. (certificate No. SCXK (Beijing) 2016-0006), weighing about 19 g on purchase.
Housing conditions: 5 animals/cage, a 12/12-hour light/dark cycle, a constant temperature of 23±1° C. with humidity at 50 to 60%, ad libitum access to food and water.
After acclimatization, BEIGE SCID mice were grouped as follows:
MCF-7 (Y537S) cells in the logarithmic growth phase were subcutaneously inoculated into the right flank of female BEIGE SCID mice at 1.0×10^7/mouse/200 μL (containing 100 μL of matrigel). After 18 days, when the tumor volume of tumor-bearing mice reached about 170 mm^3, the mice were randomly divided into 4 groups of 8 according to tumor volume and body weight: a vehicle control group, a compound I 5 mpk group, a compound I 15 mpk group, and a compound I 45 mpk group. The day of grouping was set as Do, and intragastric administration was started and performed once a day for 28 days. The 28th day post-dose was set as D28 (Table 1). The tumor volume of tumor-bearing mice was measured with a vernier caliper twice a week.
All data were plotted and statistically analyzed using Excel and GraphPad Prism 8 software.
The calculation formula for tumor volume (V) was: V=½×a×b2, where a and b represent length and width, respectively.
Relative tumor proliferation rate T/C (%)=(T−T0)/(C−C0)×100(%), where T and C represent the tumor volumes of the treatment groups and the control group at the end of the experiment; T0 and C0 represent the tumor volumes at the beginning of the experiment.
Tumor growth inhibition rate TGI (%)=1−T/C (%). If TGI (%) exceeds 100%, its specific value will not be shown; instead, it will be represented as >100%. Tumor regression (%)=[(T0−T)/T0]×100(%).

Data set [2] is described as follows: Long-term/accelerated stability. Format: physicochemical. As for the experimental part: Hydrochloride crystal form I was left to stand under 25° C./60% RH and 40° C./75% RH conditions to test its stability.
Data set [3] in a line: DVS (dynamic vapor sorption) hygroscopicity test. The data set is classed as physicochemical. As for the experimental part:
DVS refers to dynamic vapor sorption: Surface Measurement Systems instrinsic was adopted; the humidity started at 50%, the humidity range of the investigation was 0%-95%, and the humidity was increased in increments of 10%; the criterion was that each gradient mass change dM/dT is ≤0.002%, TMAX 360 min, two cycles.

Data set [4] can be described thus: Influencing factor stability (light, high temperature, high humidity). The data set is classed as physicochemical. How it is done:
Samples of hydrochloride crystal form I were spread out in open vessels and subjected to 1-month stability tests under light exposure (4500 Lux), high temperature (40° C. and 60° C.), and high humidity (RH 75% and RH 92.5%) conditions.

By IC50 is commonly meant the concentration needed to halve the response being measured.

SMILES strings stand for the structures. Where a name gives a salt, the structure may show the parent alone.

In the case of `CC(C)C[C@H]1CCc2cc(O)ccc2[C@H]1c1ccc(N2CCC(CN3CCN(c4ccc5c(c4)CN([C@H]4CCC(=O)NC4=O)C5=O)CC3)CC2)cc1` [Compound I, (S)-3-(5-(4-((1-(4-((1R,2R)-6-hydroxy-2-isobutyl-1,2,3,4-tetrahydronaphthalen-1-yl)phenyl)piperidin-4-yl)methyl)piperazin-1-yl)-1-oxoisoindolin-2-yl)piperidine-2,6-dione], the IC50 with MCF7 cells was determined as 590 pM. Besides, in data set [1] (5 mpk i.g. qd/28 d), the “Number of remaining animals/group” value is 8/8, the “Mean tumor volume D0” value worked out at 170.2 mm^3, the “Mean tumor volume D28” value is listed as 305.0 mm^3 and the “TGI (%) D28” value is reported as 72%. In addition, in data set [1] (15 mpk i.g. qd/28 d), the “Number of remaining animals/group” value is 8/8, the “Mean tumor volume D0” value is 168.2 mm^3, the “Mean tumor volume D28” value is given as 219.7 mm^3 and the “TGI (%) D28” value is 89%. Moreover, in data set [1] (45 mpk i.g. qd/28 d), the “Number of remaining animals/group” value is 8/8, the “Mean tumor volume D0” value stood at 168.6 mm^3, the “Mean tumor volume D28” value worked out at 192.0 mm^3 and the “TGI (%) D28” value amounted to 95%.
As for `CC(C)C[C@H]1CCc2cc(O)ccc2[C@H]1c1ccc(N2CCC(CN3CCN(c4ccc5c(c4)CN([C@H]4CCC(=O)NC4=O)C5=O)CC3)CC2)cc1` [hydrochloride crystal form I, (S)-3-(5-(4-((1-(4-((1R,2R)-6-hydroxy-2-isobutyl-1,2,3,4-tetrahydronaphthalen-1-yl)phenyl)piperidin-4-yl)methyl)piperazin-1-yl)-1-oxoisoindolin-2-yl)piperidine-2,6-dione], the Purity % in data set [2] (25° C./60% RH, 7 days) was determined as 99.0%; in data set [2] (25° C./60% RH, 14 days) it was 99.0%; in data set [2] (25° C./60% RH, 30 days), 99.0%; in data set [2] (25° C./60% RH, 60 days), 99.0%; in data set [2] (40° C./75% RH, 7 days), 99.0%; in data set [2] (40° C./75% RH, 14 days) it was 99.0%. Further, the Purity % in data set [2] (40° C./75% RH, 30 days) is listed as 99.0%; in data set [2] (40° C./75% RH, 60 days) it was 98.9%; in data set [2] (Initial, 0 days), 99.0%; in data set [4] (40° C., 7 days, open vessel), 98.6%; in data set [4] (40° C., 14 days, open vessel) it was 98.4%; in data set [4] (40° C., 30 days, open vessel), 97.9%. Moreover, the Purity % in data set [4] (60° C., 7 days, open vessel) amounted to 98.2%; in data set [4] (60° C., 14 days, open vessel) it was 97.6%; in data set [4] (60° C., 30 days, open vessel), 96.8%; in data set [4] (75% RH, 7 days, open vessel), 99.0%; in data set [4] (75% RH, 14 days, open vessel), 98.9%; in data set [4] (75% RH, 30 days, open vessel), 99.0%. In addition, the Purity % in data set [4] (93% RH, 7 days, open vessel) is given as 99.0%; in data set [4] (93% RH, 14 days, open vessel), 98.9%; in data set [4] (93% RH, 30 days, open vessel), 98.7%; in data set [4] (4500 Lux, 7 days, open vessel), 98.6%; in data set [4] (4500 Lux, 14 days, open vessel), 98.1%; in data set [4] (4500 Lux, 30 days, open vessel) it was 97.8%. In data set [4] (Initial, 0 days), this compound displayed a Purity % of 99.0%. The “physical and chemical stabilities (conclusion)” value in data set [2] (standing under long-term accelerated conditions for 2 months) is “good physical and chemical stabilities”; in data set [4] (standing 1 month under conditions other than the high temperature and light exposure conditions), “good physical and chemical stabilities”. In addition, the hygroscopic weight gain entry is listed as “about 7.3%” in data set [3] (accelerated experimental conditions, 70% RH); “about 8.9%” in data set [3] (extreme conditions, 90% RH); “about 6.3%” in data set [3] (normal storage conditions, 25° C. and 60% RH). In addition, the “crystal form after the DVS tests” value in data set [3] (sample re-identified after DVS) is reported as “its crystal form did not change”.

Source of the values: patent US20260098027A1, “PHARMACEUTICALLY ACCEPTABLE SALT AND CRYSTAL FORM OF TETRAHYDRONAPHTHALENE DERIVATIVE, AND PREPARATION METHOD” (JIANGSU HENGRUI PHARMACEUTICALS CO., LTD., priority 2022, published 2026).
